From article PMC10392906 (Advances and Applications in Bioinformatics and Chemistry : …, 2023) come the findings set out here.

For the test, the target named is T1, pancreatic porcine α-amylase (Sus scrofa, UniProt P00690).
T1 sequence (P00690 16-511): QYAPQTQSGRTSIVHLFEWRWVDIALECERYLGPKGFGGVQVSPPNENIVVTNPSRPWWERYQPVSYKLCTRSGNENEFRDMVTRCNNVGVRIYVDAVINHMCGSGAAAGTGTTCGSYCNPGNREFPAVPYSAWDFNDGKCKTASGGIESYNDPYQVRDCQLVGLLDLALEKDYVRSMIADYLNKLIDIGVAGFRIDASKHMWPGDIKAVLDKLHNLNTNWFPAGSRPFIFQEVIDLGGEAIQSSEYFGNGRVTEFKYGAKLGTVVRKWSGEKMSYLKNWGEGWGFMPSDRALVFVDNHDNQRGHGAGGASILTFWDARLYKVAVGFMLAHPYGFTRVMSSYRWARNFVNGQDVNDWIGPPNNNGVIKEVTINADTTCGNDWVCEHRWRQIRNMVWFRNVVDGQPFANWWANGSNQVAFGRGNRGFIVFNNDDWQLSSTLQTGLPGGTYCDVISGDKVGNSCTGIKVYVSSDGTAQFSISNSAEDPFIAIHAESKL
Nature of the test: α-Amylase inhibitory assay. As to conditions: for inhibition at 10 µg/mL: read-out: % of Inhibition of α-amylase (Mean ± S.D.), 10 µg/mL. Type of test: biochemical.

On to `COc1cc(C=CC(=O)CC(c2ccc(N(C)C)cc2)n2ccnc2)ccc1O` (stereo not shown) [Compound 16, 5-(4-(Dimethylamino)phenyl)-1-(4-Hydroxy-3-Methoxyphenyl)-5-(1H-Imidazol-1-yl)pent-1-En-3-One], for which the inhibition at 10 µg/mL stood at 87.15 ± 0.46%. For the same compound, the “α-amylase inhibitory effect better than acarbose” value (versus acarbose) is recorded as “up to 2 fold”.

On to “4-(-2-(3-(4-(Dimethylamino)phenyl)-4,5-Dihydro-1H-Pyrazol-5-yl)vinyl)-2-Methoxyphenol [Compound 8]”, for which, where the note is “10 µg/mL”, the “% of Inhibition of α-amylase (Mean ± S.D.)” value was found to be 85.32±0.36%. Turning to `COc1cc(C=Cc2cc(-c3ccccc3)nc(O)n2)ccc1O` [Compound 11, 4-(4-Hydroxy-3-Methoxystyryl)-6-Phenylpyrimidin-2-ol], the inhibition at 10 µg/mL came out at 85.17 ± 0.55%.
